The test system of one data set is A549. Kind of data set: MTT antiproliferative assay, A549 cells. The class given is cell-based. The conditions noted are these: Homo sapiens, 48 h, MTT, read-out: Antiproliferative activity (growth inhibition, %); for inhibition at 2 µg/mL: A549, 2 μg/mL; for inhibition at 20 µg/mL: A549, 20 μg/mL. As for the experimental part:
(§1) All the cells were seeded in 96-well plates and incubated with 5% CO2 at 37 °C for 24 h. Next, the compounds and the reference were dissolved into the culture medium. The final concentration of DMSO in the medium was less than 0.5%. After the cells were treated with compounds for 48 h, the supernatant was removed and 5 mg/mL of a fresh prepared solution of MTT was added to each well and incubated with the cells at 37 °C for another 4 h. The medium was removed, and 100 μL of testing solution was added to each well. After an overnight incubation with 5% CO2 at 37 °C, the absorbance was measured at 490/630 nm by the microplate reader. The IC50 was calculated using GraphPad Prism version 6.0 software (San Diego, CA, USA) from the non-linear curve.

The subject of the next data set is HT29. Kind of data set: MTT antiproliferative assay, HT29 cells. The note with it: Homo sapiens, HT-29, 48 h, MTT, read-out: Antiproliferative activity (growth inhibition, %); for inhibition at 2 µg/mL: HT29, 2 μg/mL; for inhibition at 20 µg/mL: HT29, 20 μg/mL. Format: cell-based. The protocol: as §1

As a reminder, the inhibition is the relative decrease from the control value, in per cent. Broadly, the melting point is the temperature, or range, at which the solid turns liquid. Compound `CC1(C)C2CC[C@]3(C)[C@H](C(=O)C=C4[C@@H]5C[C@@](C)(C(=O)O)CC[C@]5(C)CC[C@]43C)[C@@]2(C)CC[C@@H]1OC(=O)Nc1ccc(Cl)cc1` (stereo partly drawn) [3d, 3β-(((4-chlorophenyl)carbamoyl)oxy)-11-oxo-olean-12-en-30-oic acid] registered a melting point of 235.1 to 236.7 °C. Further, in the data set on A549, the inhibition at 2 µg/mL stood at 9.93% and the inhibition at 20 µg/mL was 55.4%. In the data set on HT29, the inhibition at 2 µg/mL came out at 13.7% and the inhibition at 20 µg/mL was determined as 56.2%.
The like results for `Cc1ccc(NC(=O)O[C@H]2CC[C@@]3(C)C(CC[C@]4(C)[C@@H]3C(=O)C=C3[C@@H]5C[C@@](C)(C(=O)O)CC[C@]5(C)CC[C@]34C)C2(C)C)cc1Cl` (stereo partly drawn) [3f, 3β-(((3-chloro-4-methylphenyl)carbamoyl)oxy)-11-oxo-olean-12-en-30-oic acid] were, in that order, 270.7 to 271.6 °C, 11.4%, 80.2%, 15.6% and 89.2%.
The like results for `CC1(C)C2CC[C@]3(C)[C@H](C(=O)C=C4[C@@H]5C[C@@](C)(C(=O)O)CC[C@]5(C)CC[C@]43C)[C@@]2(C)CC[C@@H]1OC(=O)Nc1ccc(Br)cc1` (stereo partly drawn) [3g, 3β-(((4-bromophenyl)carbamoyl)oxy)-11-oxo-olean-12-en-30-oic acid] were, in that order, 263 to 265 °C, 9.72%, 63.4%, 18.6% and 76.5%.
`CC1(C)C2CC[C@]3(C)[C@H](C(=O)C=C4[C@@H]5C[C@@](C)(C(=O)O)CC[C@]5(C)CC[C@]43C)[C@@]2(C)CC[C@@H]1OC(=O)Nc1ccc(F)cc1` (stereo partly drawn) [3h, 3β-(((4-fluorophenyl)carbamoyl)oxy)-11-oxo-olean-12-en-30-oic acid]: the melting point lay within 267.9 to 268.9 °C. Also, in the data set with A549, the inhibition at 2 µg/mL was found to be 34.4% and the inhibition at 20 µg/mL was found to be 56.7%. In the data set on HT29, the inhibition at 2 µg/mL was 11.8% and the inhibition at 20 µg/mL worked out at 58.6%.
The like results for `CC1(C)C2CC[C@]3(C)[C@H](C(=O)C=C4[C@@H]5C[C@@](C)(C(=O)O)CC[C@]5(C)CC[C@]43C)[C@@]2(C)CC[C@@H]1OC(=O)Nc1ccc(C(F)(F)F)cc1` (stereo partly drawn) [3i, 3β-(((4-(trifluoromethyl)phenyl)carbamoyl)oxy)-11-oxo-olean-12-en-30-oic acid] were, in that order, 242.1 to 242.9 °C, 15.9%, 87.5%, 19.4% and 90.1%.
For `COc1cccc(NC(=O)O[C@H]2CC[C@@]3(C)C(CC[C@]4(C)[C@@H]3C(=O)C=C3[C@@H]5C[C@@](C)(C(=O)O)CC[C@]5(C)CC[C@]34C)C2(C)C)c1` (stereo partly drawn) [3l, 3β-(((3-methoxyphenyl)carbamoyl)oxy)-11-oxo-olean-12-en-30-oic acid], the melting point was 259.5 to 261.1 °C. Further, in the data set on A549, the inhibition at 2 µg/mL amounted to 9.74% and the inhibition at 20 µg/mL amounted to 53.7%. In addition, in the data set on HT29, the inhibition at 2 µg/mL worked out at 6.06% and the inhibition at 20 µg/mL turned out to be 47.4%.
The like results for `COc1ccc(NC(=O)O[C@H]2CC[C@@]3(C)C(CC[C@]4(C)[C@@H]3C(=O)C=C3[C@@H]5C[C@@](C)(C(=O)O)CC[C@]5(C)CC[C@]34C)C2(C)C)cc1` (stereo partly drawn) [3m, 3β-(((4-methoxyphenyl)carbamoyl)oxy)-11-oxo-olean-12-en-30-oic acid] were, in that order, 264 to 264.8 °C, 11.7%, 47.5%, 12.8% and 32.3%.
In turn, `CC1(C)C2CC[C@]3(C)[C@H](C(=O)C=C4[C@@H]5C[C@@](C)(C(=O)N6CCOCC6)CC[C@]5(C)CC[C@]43C)[C@@]2(C)CC[C@@H]1OC(=O)Nc1ccc(Cl)c(Cl)c1` (stereo partly drawn) [4a, 3β-(((3,4-dichlorophenyl)carbamoyl)oxy)-30-morpholino-olean-12-ene-11,30-dione] had a melting point of 292.5 to 293 °C. For the same compound, in the data set with A549, the inhibition at 2 µg/mL came out at 0% and the inhibition at 20 µg/mL was 0%. Also, in the data set on HT29, the inhibition at 2 µg/mL is 8.88% and the inhibition at 20 µg/mL is 18.3%.
In turn, `CC1(C)C2CC[C@]3(C)[C@H](C(=O)C=C4[C@@H]5C[C@@](C)(C(=O)N6CCOCC6)CC[C@]5(C)CC[C@]43C)[C@@]2(C)CC[C@@H]1OC(=O)Nc1ccc(Cl)c(C(F)(F)F)c1` (stereo partly drawn) [4b, 3β-(((4-chloro-3-(trifluoromethyl)phenyl)carbamoyl)oxy)-30-morpholino-olean-12-ene-11,30-dione] showed a melting point of 209.5 to 211.1 °C. Also, in the data set on A549, the inhibition at 2 µg/mL came to 0% and the inhibition at 20 µg/mL is 0%. In addition, in the data set on HT29, the inhibition at 2 µg/mL was found to be 14.4% and the inhibition at 20 µg/mL was 32.8%.
`CC1(C)C2CC[C@]3(C)[C@H](C(=O)C=C4[C@@H]5C[C@@](C)(C(=O)N6CCOCC6)CC[C@]5(C)CC[C@]43C)[C@@]2(C)CC[C@@H]1OC(=O)Nc1cc(Cl)cc(Cl)c1` (stereo partly drawn) [4c, 3β-(((3,5-dichlorophenyl)carbamoyl)oxy)-30-morpholino-olean-12-ene-11,30-dione]: the melting point was 278.2 to 280.3 °C. In addition, in the data set on A549, the inhibition at 2 µg/mL amounted to 0% and the inhibition at 20 µg/mL amounted to 0%. Further, in the data set with HT29, the inhibition at 2 µg/mL worked out at 7.41% and the inhibition at 20 µg/mL is 2.76%.
In turn, `CC1(C(=O)N2CCOCC2)CCC2(C)CCC3(C)C(=CC(=O)C4C5(C)CCC(OC(=O)Nc6ccc(Cl)cc6)C(C)(C)C5CCC43C)C2C1` (stereo not drawn) [4d, 3β-(((4-chlorophenyl)carbamoyl)oxy)-30-morpholino-olean-12-ene-11,30-dione] displayed a melting point of 298.4 to 299.7 °C. In the data set with A549, the inhibition at 2 µg/mL is 0% and the inhibition at 20 µg/mL stood at 54.4%. For the same compound, in the data set with HT29, the inhibition at 2 µg/mL was 16.3% and the inhibition at 20 µg/mL was determined as 53.7%.
The like results for `CC1(C)C2CC[C@]3(C)[C@H](C(=O)C=C4[C@@H]5C[C@@](C)(C(=O)N6CCOCC6)CC[C@]5(C)CC[C@]43C)[C@@]2(C)CC[C@@H]1OC(=O)Nc1cccc(Cl)c1` (stereo partly drawn) [4e, 3β-(((3-chlorophenyl)carbamoyl)oxy)-30-morpholino-olean-12-ene-11,30-dione] were, in that order, 291 to 292.5 °C, 0%, 0%, 7.22% and 13.2%.
The like results for `Cc1ccc(NC(=O)O[C@H]2CC[C@@]3(C)C(CC[C@]4(C)[C@@H]3C(=O)C=C3[C@@H]5C[C@@](C)(C(=O)N6CCOCC6)CC[C@]5(C)CC[C@]34C)C2(C)C)cc1Cl` (stereo partly drawn) [4f, 3β-(((3-chloro-4-methylphenyl)carbamoyl)oxy)-30-morpholino-olean-12-ene-11,30-dione] were, in that order, 293.7 to 295.6 °C, 0%, 0%, 7.1% and 18.4%.
For the compound `CC1(C(=O)N2CCOCC2)CCC2(C)CCC3(C)C(=CC(=O)C4C5(C)CCC(OC(=O)Nc6ccc(Br)cc6)C(C)(C)C5CCC43C)C2C1` (stereo not drawn) [4g, 3β-(((4-bromophenyl)carbamoyl)oxy)-30-morpholino-olean-12-ene-11,30-dione], in the data set on A549, the inhibition at 2 µg/mL turned out to be 0% and the inhibition at 20 µg/mL was determined as 1.02%. In the data set with HT29, the inhibition at 2 µg/mL was 14.3% and the inhibition at 20 µg/mL came to 27.1%.

These data come from paper PMC6803848, “Exploring New Structural Features of the 18β-Glycyrrhetinic Acid Scaffold for the Inhibition of Anaplastic Lymphoma Kinase” (Molecules, 2019).
